Assay results: US7176164B2, “1,3-selenazolin derivatives and process for preparing the same” (Gifu University, priority 2001, dated 2007)

How the values were obtained:
[1] = test system: human HT-1080 fibrosarcoma cells; test: growth inhibitory action against human HT-1080 fibrosarcoma cells (crystal violet method); format: cell-based; settings: HT-1080 cells; for IC50: Homo sapiens, 24 hours culture with test drug, DMEM/F12 with 0.1% bovine serum albumin; for growth inhibitory action on HT-1080 fibrosarcoma cells (in words): 24 hours, summary of Table 1
Experimental: The growth inhibitory action of the selenazolin derivatives of chemical formulas 4 through 12 against human HT-1080 fibrosarcoma cells was investigated. HT-1080 fibrosarcoma cells growing in Eagle's Minimum Essential Medium (EMEM) containing 10% fetal calf serum within an incubator having an atmosphere of 5% CO2 and 95% air maintained at a temperature of 37 degrees Celsius were inoculated into a 96-well plate at the rate of 1×10^4 cells/well. After 48 hours, the medium was replaced with Dulbecco's Modified Eagle's Medium (DMEM)/F12 medium containing 0.1% bovine serum albumin, and the test drugs at each concentration (0.1 μM, 100 μM) were added, followed by culturing for 24 hours. Growth inhibitory action on human HT-1080 fibrosarcoma cells was determined from the staining density following staining using the crystal violet method.

protein kinases = test: simultaneous detection of the activity of a plurality of protein kinases on a single gel (lysate of v-src transformed NIH3T3 cells, labeled ATP, SDS-PAGE and autoradiography); format: biochemical; settings: supernatant of v-src transformed NIH3T3 cells; relative to rottlerin, typically used as a protein kinase inhibitor
Experimental: Action relative to a plurality of protein kinases was investigated in accordance with the method for simultaneous detection of the activity of a plurality of protein kinases on a single gel as described in Anal. Biochem. 212:106–110, 1993.
More specifically, NIH3T3 cells transformed with v-src were disintegrated with a hypotonic buffer and denucleated by gentle centrifugation. Various types of […] (including 1 μM PMA (phorbolmyristate acetate), 20 μM cyclic adenosine-3′,5′-monophosphate (cAMP)) were then added to the centrifuged supernatant. Moreover, 3-isopropyl-2-isopropylimino-1,3-selenazolidin-4-one of chemical formula 4 and labeled adenosine triphosphate (ATP) were added and the mixture was allowed to react. After stopping the reaction, the phosphorylated protein was analyzed by SDS-PAGE and autoradiography.

Structure (SMILES) | IC50 [1] [µM] | growth inhibitory action on HT-1080 fibrosarcoma cells (in words) [1] | inhibitory activity compared with rottlerin (protein kinases) [times]
CC(C)N=C1[Se]C(C)(C)C(=O)N1C(C)C [Chemical Formula 8, 3-isopropyl-2-isopropylimino-5,5-dimethyl-1,3-selenazolidin-4-one] | 98 |  | 
CC(C)N=C1[Se]C(C)C(=O)N1C(C)C (stereo not shown) [Chemical Formula 6, 3-isopropyl-2-isopropylimino-5-methyl-1,3-selenazolidin-4-one] | 89 |  | 
Cc1ccccc1N=C1[Se]CC(=O)N1c1ccccc1C [Chemical Formula 12, 3-o-tolyl-2-o-tolylimino-1,3-selenazolidin-4-one] | 75 |  | 
CC(C)(C)N=C1[Se]CC(=O)N1C(C)(C)C [Chemical Formula 10, 3-t-butyl-2-t-butylimino-1,3-selenazolidin-4-one] | 4.5 | potent growth inhibitory action | 
Cc1ccc(N=C2[Se]CC(=O)N2c2ccc(C)cc2)cc1 [Chemical Formula 11, 3-p-tolyl-2-p-tolylimino-1,3-selenazolidin-4-one] | > 100 |  | 
CC(C)N=C1[Se]C(c2ccccc2)C(=O)N1C(C)C (stereo not shown) [Chemical Formula 9, 3-isopropyl-2-isopropylimino-5-phenyl-1,3-selenazolidin-4-one] | > 100 |  | 
O=C1C[Se]C(=NC2CCCCC2)N1C1CCCCC1 [Chemical Formula 5, 3-cyclohexyl-2-cyclohexylimino-1,3-selenazolidin-4-one] | > 100 |  | 
CCC1[Se]C(=NC(C)C)N(C(C)C)C1=O (stereo not shown) [Chemical Formula 7, 3-isopropyl-2-isopropylimino-5-ethyl-1,3-selenazolidin-4-one] | 2.5 | potent growth inhibitory action | 
CC(C)N=C1[Se]CC(=O)N1C(C)C [Chemical Formula 4, 3-isopropyl-2-isopropylimino-1,3-selenazolidin-4-one] | 3.2 | potent growth inhibitory action | ≥ 20
